# Values of other authors as cited in patent US20020155083A1, “Dermal regeneration methods and compositions related thereto in conjunction with laser phototherapy, microdermabrasion and epidermabrasion” (priority 2001, published 2002).
# Ends that are not written are not given here.
# Experiments:
# influenza virus = details: in combination with amantadine and interferon; mice infected with the influenza virus
# [1] = system: C. albicans, Listeria monocytogenes, Pseudomonas aeruginosa, and Serratia marescens; details: 5-fluorouracil (5FU)- or morphine-immunosuppressed mice, injection
# interferon (IFN) = details: mouse, in vivo
# [2] = system: BCO, Candida, or Cryptococcus; details: immunosuppressed mice infected with BCO
# Candida albicans = details: mice, injection
substance,measurement,setting,value
"thymosin α1 (SDAAVDTSSEITTKDLKEKKEVVEEAEN; ends and bridges not checked; UniProt P06454 2-29, looked up) [Tα1]",long term survival,influenza virus,significantly increase
same,viral titers in the lungs,influenza virus,reduce viral titers
same,protection against opportunistic infections,[1],protect
same,amount of interferon (IFN) produced,interferon (IFN),significant rise
same,survival rate,[2],increased survival rate
same,resistance to infection with Candida albicans,Candida albicans,increased resistance
